According to the supplement of paper PMC10307832:

Legend:
Assay in all cases: relative viability (nuclei count vs DMSO), 5 days (fraction); higher = more cells survive
[1] = system: A-427
How it was run: (§1)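 Nuclei were stained with Hoechst during a one-step fixation (final 0.05% Triton X-100, 1% formaldehyde, 1 ug/ml Hoechst) carried out 5 days after dosing, then counted on 4× images. The cells, lung cancer lines in 1536-well plates, had been dosed by pin tool the day after seeding with one drug alone or a fixed anchor-drug dose plus five library-drug doses (not always all listed) in √10 steps. Relative viability is the nuclei count in treated wells divided by that in vehicle wells, and each value is the median of duplicate plates.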

[2] = system: BEN
How it was run: as §1

[3] = system: COR-L23
How it was run: as §1

[4] = system: EKVX
How it was run: as §1

[5] = system: HARA
How it was run: as §1

[6] = system: LC-2-ad
How it was run: as §1

[7] = system: LCLC-103H
How it was run: as §1

[8] = system: LOU-NH91
How it was run: as §1

[9] = system: LU99A
How it was run: as §1

[10] = system: NCI-H1650
How it was run: as §1

[11] = system: NCI-H1666
How it was run: as §1

[12] = system: NCI-H1793
How it was run: as §1

[13] = system: NCI-H1915
How it was run: as §1

[14] = system: NCI-H1944
How it was run: as §1

[15] = system: NCI-H2087
How it was run: as §1

[16] = system: NCI-H2170
How it was run: as §1

[17] = system: NCI-H2228
How it was run: as §1

[18] = system: NCI-H3122
How it was run: as §1

[19] = system: NCI-H322M
How it was run: as §1

[20] = system: NCI-H520
How it was run: as §1

[21] = system: NCI-H727
How it was run: as §1

[22] = system: PC-14
How it was run: as §1

[23] = system: PC-3 [JPC-3]
How it was run: as §1

[24] = system: SK-LU-1
How it was run: as §1

Compound: C=C1C(=O)O[C@@H](CCCCCCCC)[C@@H]1C(=O)O [C-75] + CC(=O)Nc1cccc(-n2c(=O)n(C3CC3)c(=O)c3c(Nc4ccc(I)cc4F)n(C)c(=O)c(C)c32)c1 [Trametinib] (partner 0.02 µM)
- relative viability ([1]; first compound 0.08 µM): 0.78
- relative viability ([1]; first compound 0.253 µM): 0.84
- relative viability ([1]; first compound 0.8 µM): 0.655
- relative viability ([1]; first compound 2.53 µM): 0.665
- relative viability ([1]; first compound 8 µM): 0.701
- relative viability ([2]; first compound 0.08 µM): 0.993
- relative viability ([2]; first compound 0.253 µM): 1.2
- relative viability ([2]; first compound 0.8 µM): 0.995
- relative viability ([2]; first compound 2.53 µM): 1.14
- relative viability ([2]; first compound 8 µM): 0.989
- relative viability ([3]; first compound 0.08 µM): 0.636
- relative viability ([3]; first compound 0.253 µM): 0.58
- relative viability ([3]; first compound 0.8 µM): 0.562
- relative viability ([3]; first compound 2.53 µM): 0.485
- relative viability ([3]; first compound 8 µM): 0.569
- relative viability ([4]; first compound 0.08 µM): 0.344
- relative viability ([4]; first compound 0.253 µM): 0.263
- relative viability ([4]; first compound 0.8 µM): 0.31
- relative viability ([4]; first compound 8 µM): 0.355
- relative viability ([5]; first compound 0.08 µM): 0.662
- relative viability ([5]; first compound 0.253 µM): 0.931
- relative viability ([5]; first compound 0.8 µM): 0.766
- relative viability ([5]; first compound 2.53 µM): 0.587
- relative viability ([5]; first compound 8 µM): 0.646
- relative viability ([6]; first compound 0.08 µM): 0.883
- relative viability ([6]; first compound 0.253 µM): 0.954
- relative viability ([6]; first compound 0.8 µM): 0.832
- relative viability ([6]; first compound 2.53 µM): 0.861
- relative viability ([6]; first compound 8 µM): 0.926
- relative viability ([7]; first compound 0.08 µM): 0.64
- relative viability ([7]; first compound 0.253 µM): 0.703
- relative viability ([7]; first compound 0.8 µM): 0.624
- relative viability ([7]; first compound 2.53 µM): 0.547
- relative viability ([7]; first compound 8 µM): 0.721
- relative viability ([8]; first compound 0.08 µM): 0.802
- relative viability ([8]; first compound 0.253 µM): 0.712
- relative viability ([8]; first compound 0.8 µM): 0.762
- relative viability ([8]; first compound 8 µM): 0.782
- relative viability ([9]; first compound 0.08 µM): 0.526
- relative viability ([9]; first compound 0.253 µM): 0.528
- relative viability ([9]; first compound 0.8 µM): 0.475
- relative viability ([9]; first compound 2.53 µM): 0.562
- relative viability ([9]; first compound 8 µM): 0.527
- relative viability ([10]; first compound 0.08 µM): 0.462
- relative viability ([10]; first compound 0.253 µM): 0.553
- relative viability ([10]; first compound 0.8 µM): 0.602
- relative viability ([10]; first compound 8 µM): 0.555
- relative viability ([11]; first compound 0.08 µM): 0.869
- relative viability ([11]; first compound 0.253 µM): 1.01
- relative viability ([11]; first compound 0.8 µM): 0.807
- relative viability ([11]; first compound 8 µM): 0.728
- relative viability ([12]; first compound 0.08 µM): 0.356
- relative viability ([12]; first compound 0.253 µM): 0.509
- relative viability ([12]; first compound 2.53 µM): 0.356
- relative viability ([12]; first compound 8 µM): 0.409
- relative viability ([13]; first compound 0.08 µM): 0.323
- relative viability ([13]; first compound 0.253 µM): 0.288
- relative viability ([13]; first compound 0.8 µM): 0.32
- relative viability ([13]; first compound 2.53 µM): 0.273
- relative viability ([13]; first compound 8 µM): 0.359
- relative viability ([14]; first compound 0.08 µM): 0.397
- relative viability ([14]; first compound 0.253 µM): 0.465
- relative viability ([14]; first compound 0.8 µM): 0.361
- relative viability ([14]; first compound 2.53 µM): 0.367
- relative viability ([14]; first compound 8 µM): 0.371
- relative viability ([15]; first compound 0.08 µM): 0.247
- relative viability ([15]; first compound 0.253 µM): 0.24
- relative viability ([15]; first compound 0.8 µM): 0.179
- relative viability ([15]; first compound 2.53 µM): 0.16
- relative viability ([15]; first compound 8 µM): 0.212
- relative viability ([16]; first compound 0.08 µM): 0.962
- relative viability ([16]; first compound 0.253 µM): 0.924
- relative viability ([16]; first compound 0.8 µM): 0.941
- relative viability ([16]; first compound 2.53 µM): 0.849
- relative viability ([16]; first compound 8 µM): 0.85
- relative viability ([17]; first compound 0.08 µM): 0.666
- relative viability ([17]; first compound 0.253 µM): 0.673
- relative viability ([17]; first compound 0.8 µM): 0.444
- relative viability ([17]; first compound 2.53 µM): 0.372
- relative viability ([17]; first compound 8 µM): 0.519
- relative viability ([18]; first compound 0.08 µM): 0.261
- relative viability ([18]; first compound 0.253 µM): 0.243
- relative viability ([18]; first compound 0.8 µM): 0.218
- relative viability ([18]; first compound 2.53 µM): 0.143
- relative viability ([18]; first compound 8 µM): 0.259
- relative viability ([19]; first compound 0.08 µM): 0.513
- relative viability ([19]; first compound 0.253 µM): 0.673
- relative viability ([19]; first compound 0.8 µM): 0.547
- relative viability ([19]; first compound 8 µM): 0.508
- relative viability ([20]; first compound 0.08 µM): 0.689
- relative viability ([20]; first compound 0.253 µM): 0.816
- relative viability ([20]; first compound 0.8 µM): 0.593
- relative viability ([20]; first compound 2.53 µM): 0.48
- relative viability ([20]; first compound 8 µM): 0.533
- relative viability ([21]; first compound 0.08 µM): 0.377
- relative viability ([21]; first compound 0.253 µM): 0.378
- relative viability ([21]; first compound 0.8 µM): 0.448
- relative viability ([21]; first compound 2.53 µM): 0.393
- relative viability ([21]; first compound 8 µM): 0.352
- relative viability ([22]; first compound 0.08 µM): 0.902
- relative viability ([22]; first compound 0.253 µM): 0.811
- relative viability ([22]; first compound 0.8 µM): 0.724
- relative viability ([22]; first compound 2.53 µM): 0.78
- relative viability ([22]; first compound 8 µM): 0.731
- relative viability ([23]; first compound 0.08 µM): 0.744
- relative viability ([23]; first compound 0.253 µM): 0.651
- relative viability ([23]; first compound 0.8 µM): 0.657
- relative viability ([23]; first compound 2.53 µM): 0.64
- relative viability ([23]; first compound 8 µM): 0.915
- relative viability ([24]; first compound 0.08 µM): 0.494
- relative viability ([24]; first compound 0.253 µM): 0.598
- relative viability ([24]; first compound 0.8 µM): 0.49
- relative viability ([24]; first compound 2.53 µM): 0.458
- relative viability ([24]; first compound 8 µM): 0.468
